Results taken from PMC11537224 (ACS Infectious Diseases, 2024).
Like-named read-outs stand apart in the source and are kept apart here.

Legend:
TbPTR1 = target: T1, TbPTR1 (Trypanosoma brucei brucei, UniProt O76290); experiment: TbPTR1 inhibition assay
T1 sequence (O76290 1-268): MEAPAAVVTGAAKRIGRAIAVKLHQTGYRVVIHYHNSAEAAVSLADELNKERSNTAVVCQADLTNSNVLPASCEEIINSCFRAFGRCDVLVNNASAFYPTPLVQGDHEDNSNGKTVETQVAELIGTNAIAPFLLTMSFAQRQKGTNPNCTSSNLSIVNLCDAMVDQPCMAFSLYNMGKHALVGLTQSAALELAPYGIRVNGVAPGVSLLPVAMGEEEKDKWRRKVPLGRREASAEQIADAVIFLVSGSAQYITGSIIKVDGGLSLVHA

[1] = test system: T. brucei bloodstream forms; experiment: Activity toward T. brucei bloodstream forms; format: cell-based, T. brucei brucei Lister 427; details: for EC50: Trypanosoma brucei, 72 h
[2] = test system: L. infantum promastigotes; experiment: L. infantum promastigotes viability assay; format: cell-based, L. infantum MHOM/TN/80/IPT1; details: Leishmania infantum, 72 h, read-out: L. infantum EC50 (μM)
hDHFR = target: T2, hDHFR (Homo sapiens, UniProt P00374); experiment: biochemical
T2 sequence (P00374 1-187): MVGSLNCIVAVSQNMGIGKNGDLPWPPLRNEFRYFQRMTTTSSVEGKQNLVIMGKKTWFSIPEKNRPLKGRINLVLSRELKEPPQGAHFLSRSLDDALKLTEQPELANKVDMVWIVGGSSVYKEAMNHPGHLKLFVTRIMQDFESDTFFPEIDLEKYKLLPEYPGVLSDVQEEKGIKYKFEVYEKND

TbDHFR = TbDHFR (Trypanosoma brucei brucei, UniProt Q27783); experiment: biochemical
hTS = hTS (Homo sapiens, UniProt P04818); experiment: hTS inhibition assay; format: biochemical
TbTS = TbTS (Trypanosoma brucei brucei, UniProt Q27783); experiment: TbDHFR-TS inhibition assay versus the TS domain; format: biochemical
LmDHFR = LmDHFR (Leishmania major, UniProt P07382); experiment: LmDHFR inhibition assay; format: biochemical, L. major
TcDHFR = TcDHFR (Trypanosoma cruzi, UniProt Q27793); experiment: TcDHFR inhibition assay; format: biochemical, T. cruzi
T. brucei [3] = details: read-out: T. brucei EC50; cited from earlier work
T. brucei [4] = details: read-out: growth of parasites EC50; mean value from four diverse culture media; cited from earlier work
[5] = read-out: T. brucei EC50 (μM) folate deficiency

Sequence of hTS (P04818 whole entry, the tested form may be a part): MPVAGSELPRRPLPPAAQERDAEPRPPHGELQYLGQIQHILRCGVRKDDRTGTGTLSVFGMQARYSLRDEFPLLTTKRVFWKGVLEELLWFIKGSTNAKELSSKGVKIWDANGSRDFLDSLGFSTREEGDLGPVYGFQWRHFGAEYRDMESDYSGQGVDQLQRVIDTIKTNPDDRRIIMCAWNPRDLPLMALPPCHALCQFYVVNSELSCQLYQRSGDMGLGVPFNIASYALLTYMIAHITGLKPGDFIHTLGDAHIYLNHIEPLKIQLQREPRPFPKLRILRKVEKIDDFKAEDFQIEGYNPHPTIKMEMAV
Sequence of TbDHFR (Q27783 whole entry): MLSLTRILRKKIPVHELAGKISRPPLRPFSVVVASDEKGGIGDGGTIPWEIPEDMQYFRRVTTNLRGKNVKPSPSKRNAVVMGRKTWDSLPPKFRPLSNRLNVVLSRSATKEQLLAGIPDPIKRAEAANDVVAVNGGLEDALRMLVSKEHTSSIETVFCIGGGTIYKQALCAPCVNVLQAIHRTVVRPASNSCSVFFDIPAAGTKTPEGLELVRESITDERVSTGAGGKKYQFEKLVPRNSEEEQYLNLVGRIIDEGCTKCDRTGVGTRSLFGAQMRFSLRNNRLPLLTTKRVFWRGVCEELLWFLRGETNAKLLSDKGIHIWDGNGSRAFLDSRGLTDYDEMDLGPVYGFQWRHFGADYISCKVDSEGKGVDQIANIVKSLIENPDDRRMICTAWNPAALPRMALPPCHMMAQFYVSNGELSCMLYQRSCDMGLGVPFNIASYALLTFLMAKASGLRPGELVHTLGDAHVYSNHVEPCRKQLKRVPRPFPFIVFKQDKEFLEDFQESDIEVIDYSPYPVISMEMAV
Sequence of TbTS (Q27783 whole entry, the tested form may be a part): as the sequence (Q27783 whole entry) above
Sequence of LmDHFR (P07382 whole entry): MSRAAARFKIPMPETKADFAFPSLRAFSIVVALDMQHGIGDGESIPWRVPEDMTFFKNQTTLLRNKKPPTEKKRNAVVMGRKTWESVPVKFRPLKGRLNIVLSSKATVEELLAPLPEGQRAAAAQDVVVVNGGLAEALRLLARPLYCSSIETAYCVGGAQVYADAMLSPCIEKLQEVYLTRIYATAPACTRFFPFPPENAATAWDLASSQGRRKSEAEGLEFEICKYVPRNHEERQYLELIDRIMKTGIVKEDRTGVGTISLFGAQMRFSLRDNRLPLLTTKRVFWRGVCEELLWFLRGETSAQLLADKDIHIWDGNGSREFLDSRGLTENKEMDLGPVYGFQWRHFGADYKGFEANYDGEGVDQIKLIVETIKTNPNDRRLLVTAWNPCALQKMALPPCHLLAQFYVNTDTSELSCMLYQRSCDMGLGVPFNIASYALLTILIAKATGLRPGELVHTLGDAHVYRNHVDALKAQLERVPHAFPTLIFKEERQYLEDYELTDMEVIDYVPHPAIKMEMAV
Sequence of TcDHFR (Q27793 whole entry): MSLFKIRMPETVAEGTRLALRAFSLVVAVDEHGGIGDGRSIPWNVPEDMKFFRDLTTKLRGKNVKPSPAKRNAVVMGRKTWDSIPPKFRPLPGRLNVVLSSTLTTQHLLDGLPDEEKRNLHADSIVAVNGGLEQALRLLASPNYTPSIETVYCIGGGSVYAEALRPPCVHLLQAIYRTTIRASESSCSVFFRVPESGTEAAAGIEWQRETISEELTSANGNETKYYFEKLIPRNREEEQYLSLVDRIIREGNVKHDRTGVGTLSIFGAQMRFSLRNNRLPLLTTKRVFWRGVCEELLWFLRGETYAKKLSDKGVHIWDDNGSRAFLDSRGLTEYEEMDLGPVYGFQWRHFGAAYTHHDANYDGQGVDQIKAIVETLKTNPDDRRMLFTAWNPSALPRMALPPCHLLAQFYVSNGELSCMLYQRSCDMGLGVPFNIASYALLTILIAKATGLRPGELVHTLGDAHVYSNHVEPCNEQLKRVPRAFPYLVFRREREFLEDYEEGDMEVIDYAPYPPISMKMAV

| SMILES | Ki (TbPTR1) | Ki (hTS) | EC50 enhancement in folate deficiency medium versus standard medium ([1]; T. brucei, 23.3 μM to 5.4 nM) | EC50 ([1]; read-out: T. brucei EC50 (μM)) | EC50 [1, 5] | EC50 [2] | Ki (hDHFR) | Ki (TbDHFR) | Ki (TbTS) | Ki (LmDHFR) | Ki (TcDHFR) | drop-off in potency TcDHFR versus TbDHFR (TcDHFR; Ki TcDHFR versus Ki TbDHFR) | EC50 (T. brucei [3]) | EC50 (T. brucei [4]) |
| --- | --- | --- | --- | --- | --- | --- | --- | --- | --- | --- | --- | --- | --- | --- |
| N=C(N)Nc1nc2cc(Cl)c(Cl)cc2[nH]1 [2c, 5,6-Dichloro-2-guanidinobenzimidazole] | 3.23 µM | > 500 µM |  | 7.8 µM | 6.52 µM | 22.5 µM | 1.51 µM | 0.66 µM | 50.3 µM | 1.58 µM |  |  |  |  |
| Cc1cc2nc(NC(=N)N)[nH]c2cc1C [2g, 5,6-Dimethyl-2-guanidinobenzimidazole] | 54 µM | > 500 µM |  | 14.5 µM | 13.8 µM | > 20 µM | 3.55 µM | 0.009 µM | 18.2 µM | 1.04 µM | 0.6 µM | 67 fold |  |  |
| CC1(C)N=C(N)N=C(N)N1c1ccc(Cl)cc1 [Cyc, cycloguanil, reference compound] | 4.16 µM |  |  | > 80 µM | 27.2 µM | > 80 µM |  |  |  |  |  |  | > 25 µM |  |
| CCCCCCCCCCCCCCCCOP(=O)([O-])OCC[N+](C)(C)C [MLF, miltefosine, reference compound] |  |  |  |  |  | 10.9 µM |  |  |  |  |  |  |  |  |
| CN(Cc1cnc2nc(N)nc(N)c2n1)c1ccc(C(=O)N[C@@H](CCC(=O)O)C(=O)O)cc1 [MTX, methotrexate, reference compound] |  |  | 4300 fold | 23.3 µM | 0.0054 µM |  |  |  |  |  |  |  |  |  |
| N=C(N)c1ccc(OCCCCCOc2ccc(C(=N)N)cc2)cc1 [PENT, pentamidine, reference compound] |  |  |  | 0.0041 µM |  |  |  |  |  |  |  |  |  |  |
| CCc1nc(N)nc(N)c1-c1ccc(Cl)cc1 [Pyr, pyrimethamine, reference compound] |  | 11.8 µM |  | 17.3 µM | 2.08 µM | 99.2 µM |  |  |  |  |  |  |  |  |
| Cc1ccc2nc(N)[nH]c(=O)c2c1Sc1ccncc1 [nolatrexed] |  |  |  |  |  |  |  |  |  |  |  |  |  | ~32 µM |

Further lines, with some results ahead:

| Ki (TbPTR1) | Ki (hTS) | EC50 enhancement in folate deficiency medium versus standard medium ([1]; T. brucei, 23.3 μM to 5.4 nM) | SMILES | EC50 ([1]; read-out: T. brucei EC50 (μM)) | EC50 [1, 5] | EC50 [2] | Ki (hDHFR) | Ki (TbDHFR) | Ki (TbTS) | Ki (LmDHFR) | Ki (TcDHFR) | drop-off in potency TcDHFR versus TbDHFR (TcDHFR; Ki TcDHFR versus Ki TbDHFR) | EC50 (T. brucei [3]) | EC50 (T. brucei [4]) |
| --- | --- | --- | --- | --- | --- | --- | --- | --- | --- | --- | --- | --- | --- | --- |
| 13.3 µM | > 500 µM |  | N=C(N)Nc1nc2ccccc2[nH]1 [2a, 2-Guanidinobenzimidazole] | > 20 µM | > 20 µM | > 20 µM | 2.21 µM | 0.029 µM | 23.6 µM |  |  |  |  |  |
| 4.94 µM | > 500 µM |  | N=C(N)Nc1nc2cc(Cl)cc(Cl)c2[nH]1 [2d, 4,6-Dichloro-2-guanidinobenzimidazole] | 2.91 µM | 5.97 µM | 6.62 µM | 4.36 µM | 0.113 µM | 20.3 µM |  |  |  |  |  |
